Data taken from PubChem BioAssay (NCI).
Several values for one entry are separate records, joined by “and”; a condition that tells them apart may be missing. Equal values may be shown once.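 Assay format: 96-well plates, 48-hour exposure. Here, GI50 denotes the concentration required for 50% inhibition of growth. TGI: concentration producing complete growth inhibition.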

Assays:
Assay in all cases: NCI-60 cell line screen, 48 h
A549 NSCLC = tested on: A549 NSCLC
HOP-62 NSCLC = tested on: HOP-62 NSCLC
SF-539 CNS = tested on: SF-539 CNS
PC-3 prostate = tested on: PC-3 prostate
SK-MEL-5 melanoma = tested on: SK-MEL-5 melanoma
SW-620 colon = tested on: SW-620 colon
SK-OV-3 ovarian = tested on: SK-OV-3 ovarian
MALME-3M melanoma = tested on: MALME-3M melanoma
MDA-MB-435 = tested on: MDA-MB-435
UO-31 renal = tested on: UO-31 renal

O=C(c1cccs1)c1c(C(F)(F)F)n([O-])c2cc(Cl)c(Cl)cc2[n+]1=O
GI50 (A549 NSCLC): 2.72 µM
TGI (A549 NSCLC): 5.85 µM
GI50 (HOP-62 NSCLC): 1.77 µM
TGI (HOP-62 NSCLC): 3.46 µM
GI50 (SF-539 CNS): 0.719 µM
TGI (SF-539 CNS): 1.94 µM
GI50 (PC-3 prostate): 1.37 µM
TGI (PC-3 prostate): 2.81 µM
GI50 (SK-MEL-5 melanoma): 1.28 µM
TGI (SK-MEL-5 melanoma): 2.65 µM
GI50 (SW-620 colon): 0.0876 µM
TGI (SW-620 colon): 0.865 µM
GI50 (SK-OV-3 ovarian): 2.18 µM
TGI (SK-OV-3 ovarian): 4.04 µM
GI50 (MALME-3M melanoma): 1.23 µM
TGI (MALME-3M melanoma): 2.65 µM
GI50 (MDA-MB-435): 1.5 µM
TGI (MDA-MB-435): 3.12 µM
GI50 (UO-31 renal): 1.9 µM
TGI (UO-31 renal): 4.14 µM

CSc1nc2nc(-c3ccccc3)c(C)c-2c2n1C(C)C(=O)N2 (stereo unspecified)
GI50 (A549 NSCLC): 40.1 µM
TGI (A549 NSCLC): > 100 µM
GI50 (HOP-62 NSCLC): 44.7 µM
TGI (HOP-62 NSCLC): > 100 µM
GI50 (SF-539 CNS): 86.7 µM
TGI (SF-539 CNS): > 100 µM
GI50 (PC-3 prostate): 31.3 µM
TGI (PC-3 prostate): > 100 µM
GI50 (SK-MEL-5 melanoma): 16.9 µM
TGI (SK-MEL-5 melanoma): 35.5 µM
GI50 (SW-620 colon): 58.8 µM
TGI (SW-620 colon): > 100 µM
GI50 (SK-OV-3 ovarian): 8.43 µM
TGI (SK-OV-3 ovarian): 59.1 µM
GI50 (MALME-3M melanoma): 43.1 µM
TGI (MALME-3M melanoma): > 100 µM
GI50 (MDA-MB-435): 32.9 µM
TGI (MDA-MB-435): > 100 µM
GI50 (UO-31 renal): 18.3 µM
TGI (UO-31 renal): > 100 µM

Nc1nc(=S)c2ncn(C3OC(COP(=O)(O)O)C(O)C3O)c2[nH]1 (stereo unspecified)
GI50 (A549 NSCLC): 4.69 µM
TGI (A549 NSCLC): > 100 µM
GI50 (HOP-62 NSCLC): 0.447 µM
TGI (HOP-62 NSCLC): 12.7 µM
GI50 (SF-539 CNS): 2.32 µM
TGI (SF-539 CNS): > 100 µM
GI50 (PC-3 prostate): 3.44 µM
TGI (PC-3 prostate): > 100 µM
GI50 (SK-MEL-5 melanoma): 3.25 µM
TGI (SK-MEL-5 melanoma): 11.7 µM
GI50 (SW-620 colon): 3.59 µM
TGI (SW-620 colon): > 100 µM
GI50 (SK-OV-3 ovarian): 0.471 µM
TGI (SK-OV-3 ovarian): 5.09 µM
GI50 (MALME-3M melanoma): 1.81 µM
TGI (MALME-3M melanoma): 75 µM
GI50 (MDA-MB-435): 2.48 µM
TGI (MDA-MB-435): > 100 µM
GI50 (UO-31 renal): 1.98 µM
TGI (UO-31 renal): > 100 µM

CC(C)Cc1ccc(C(C)/C=C2\CCC(CN(C)C)C2=O)cc1 (stereo unspecified)
TGI (A549 NSCLC): 69.5 µM
TGI (HOP-62 NSCLC): 25 µM
TGI (SF-539 CNS): 30.4 µM
TGI (PC-3 prostate): 22.4 µM
TGI (SK-MEL-5 melanoma): 19.4 µM
TGI (SW-620 colon): 17.4 µM
TGI (SK-OV-3 ovarian): 36.5 µM
TGI (MALME-3M melanoma): 32.2 µM
TGI (MDA-MB-435): 19.6 µM
TGI (UO-31 renal): 23.4 µM

COC12C(COC(=O)NCCO)C3=C(C(=O)C(C)=C(N)C3=O)N1CC1NC12 (stereo unspecified)
GI50 (A549 NSCLC): 29.7 µM
TGI (A549 NSCLC): > 264 µM
GI50 (HOP-62 NSCLC): 28.4 µM
TGI (HOP-62 NSCLC): 74.7 µM and 139 µM
GI50 (SF-539 CNS): 13.9 µM
TGI (SF-539 CNS): 98.7 µM
TGI (PC-3 prostate): 248 µM
GI50 (SK-MEL-5 melanoma): 23.9 µM
TGI (SK-MEL-5 melanoma): 45 µM and 58.2 µM
GI50 (SW-620 colon): 26.7 µM
TGI (SW-620 colon): 110 µM
GI50 (SK-OV-3 ovarian): 100 µM
TGI (SK-OV-3 ovarian): > 264 µM
GI50 (MALME-3M melanoma): 45.3 µM
TGI (MALME-3M melanoma): 64 µM and 101 µM
TGI (MDA-MB-435): > 264 µM
GI50 (UO-31 renal): > 264 µM
TGI (UO-31 renal): > 264 µM

COc1cc2nnc3c4cccnc4[nH]c3c2cc1OC
GI50 (A549 NSCLC): 16 µM and 7.9 µM
TGI (A549 NSCLC): 50 µM and 31.7 µM
GI50 (HOP-62 NSCLC): 13.5 µM and 2.26 µM
TGI (HOP-62 NSCLC): 37.1 µM and 5.61 µM
GI50 (SF-539 CNS): 2.79 µM and 1.73 µM
TGI (SF-539 CNS): 11.4 µM and 3.52 µM
TGI (PC-3 prostate): 50 µM and > 100 µM
GI50 (SK-MEL-5 melanoma): 8.57 µM and 7.33 µM
TGI (SK-MEL-5 melanoma): 21.2 µM and 22.2 µM
GI50 (SW-620 colon): 0.961 µM and 0.444 µM
TGI (SW-620 colon): 50 µM and > 100 µM
GI50 (SK-OV-3 ovarian): 8.47 µM and 2.29 µM
TGI (SK-OV-3 ovarian): 36 µM and 9.24 µM
GI50 (MALME-3M melanoma): 7.54 µM and 2.28 µM
TGI (MALME-3M melanoma): 22.9 µM and 5.68 µM
GI50 (MDA-MB-435): 5.66 µM and 2.23 µM
TGI (MDA-MB-435): 38.7 µM and 6.96 µM
GI50 (UO-31 renal): 1.52 µM and 0.486 µM
TGI (UO-31 renal): 10.9 µM and 2.66 µM

Fc1ccc(NC(c2ccc(F)cc2)C2CCN(CCCCc3ccccc3)CC2)cc1 (stereo unspecified)
GI50 (A549 NSCLC): 1.91 µM
TGI (A549 NSCLC): 3.73 µM
GI50 (HOP-62 NSCLC): 1.45 µM
TGI (HOP-62 NSCLC): 3 µM
GI50 (SF-539 CNS): 1.71 µM
TGI (SF-539 CNS): 3.1 µM
GI50 (PC-3 prostate): 1.82 µM
TGI (PC-3 prostate): 3.76 µM
GI50 (SK-MEL-5 melanoma): 1.63 µM
TGI (SK-MEL-5 melanoma): 3.1 µM
GI50 (SW-620 colon): 1.26 µM
TGI (SW-620 colon): 2.57 µM
GI50 (SK-OV-3 ovarian): 1.86 µM
TGI (SK-OV-3 ovarian): 3.94 µM
GI50 (MALME-3M melanoma): 1.4 µM
TGI (MALME-3M melanoma): 2.88 µM
GI50 (MDA-MB-435): 1.6 µM
TGI (MDA-MB-435): 2.95 µM
GI50 (UO-31 renal): 1.08 µM
TGI (UO-31 renal): 2.43 µM

O=C(O)CN(CCN(CC(=O)O)CC(=O)O)CC(=O)O.[Mn+2]
GI50 (A549 NSCLC): > 100 µM
TGI (A549 NSCLC): > 100 µM
GI50 (HOP-62 NSCLC): > 100 µM
TGI (HOP-62 NSCLC): > 100 µM
GI50 (SF-539 CNS): > 100 µM
TGI (SF-539 CNS): > 100 µM
GI50 (PC-3 prostate): > 100 µM
TGI (PC-3 prostate): > 100 µM
GI50 (SK-MEL-5 melanoma): > 100 µM
TGI (SK-MEL-5 melanoma): > 100 µM
GI50 (SW-620 colon): > 100 µM
TGI (SW-620 colon): > 100 µM
GI50 (SK-OV-3 ovarian): > 100 µM
TGI (SK-OV-3 ovarian): > 100 µM
GI50 (MALME-3M melanoma): > 100 µM
TGI (MALME-3M melanoma): > 100 µM
GI50 (MDA-MB-435): > 100 µM
TGI (MDA-MB-435): > 100 µM
GI50 (UO-31 renal): > 100 µM
TGI (UO-31 renal): > 100 µM

CCCCCCCCCCCCCCNC(=O)Nc1ccc(Cl)c(Cl)c1
GI50 (A549 NSCLC): 3.34 µM
TGI (A549 NSCLC): > 100 µM
GI50 (HOP-62 NSCLC): 2.77 µM
TGI (HOP-62 NSCLC): > 23.1 µM
GI50 (SF-539 CNS): 4.07 µM
TGI (SF-539 CNS): > 100 µM
GI50 (PC-3 prostate): 2.67 µM
TGI (PC-3 prostate): > 37.1 µM
GI50 (SK-MEL-5 melanoma): 1.68 µM
TGI (SK-MEL-5 melanoma): 3.23 µM
GI50 (SW-620 colon): 3.18 µM
TGI (SW-620 colon): > 100 µM
GI50 (SK-OV-3 ovarian): 3 µM
TGI (SK-OV-3 ovarian): > 28.3 µM
GI50 (MALME-3M melanoma): 1.39 µM
TGI (MALME-3M melanoma): 4.59 µM
GI50 (MDA-MB-435): 2.82 µM
TGI (MDA-MB-435): 8.33 µM
GI50 (UO-31 renal): 1.57 µM
